`CCCS(=O)(=O)Nc1ccc(-c2c(C#N)c3ccc(Oc4nccnc4C)cc3n2C2CC2)cc1` [Compound 2938]: the melting point (in general, the temperature of the solid-liquid transition) was in the range of 191 to 193 °C.

Turning to `CCCS(=O)(=O)Nc1ccc(-c2c(C#N)c3ccc(-c4cnccc4OC)cc3n2C2CCC2)cc1` [Compound 3202], the melting point is 240 to 242 °C.

With `N#Cc1c(-c2ccc(OC(=O)NC3CCCCC3)cc2)n(C2CCC2)c2cc(OC3CCOCC3)ccc12` [Compound 2812], the melting point is 187 to 188 °C.

For `CCOc1ccc2c(Br)c(-c3ccc(NC(=O)OC(C)C)cc3)n(CC3CC3)c2c1` [compound 2691, [4-(3-bromo-1-cyclopropylmethyl-6-ethoxy-1H-indol-2-yl)-phenyl]-carbamic acid isopropyl ester], the melting point is 128 to 132 °C.

For the molecule `C[C@@H](OC(=O)Nc1ccc(-c2c(C#N)c3ccc(C(=O)N4CCOCC4)cc3n2C2CCC2)cc1)C1CC1` [Compound 3107], the melting point is 156 to 158 °C.

Take `CCn1c(-c2ccc(N3CCCS3(=O)=O)cc2)c(C#N)c2ccc(N3CCN(C(=O)c4ccccc4)CC3)cc21` [Compound 1358]: the melting point is 260 to 261 °C.

For `CC(C)S(=O)(=O)Nc1ccc(-c2c(C#N)c3ccc(N4CCCC4)cc3n2C2CCC2)cc1` [Compound 2975], the melting point is 256 to 261 °C.

Molecule `N#Cc1c(-c2ccc(OC(=O)NC3CCCCC3)cc2)n(CC2CC2)c2cc(OC3CCOCC3)ccc12` [Compound 2785] gave a melting point of 158 to 160 °C.

For the molecule `CCSc1ccc2c(C#N)c(-c3ccc(NC(=O)O[C@H](C)C4CC4)cc3)n(C3CCC3)c2c1` [compound 2720, (R)-[4-(3-cyano-1-cyclobutyl-6-ethylsulfanyl-1H-indol-2-yl)-phenyl]-carbamic acid 1-cyclopropyl-ethyl ester], the melting point lay in the range of 120 to 122 °C.

For the molecule `CC(C)Nc1ccc(-c2c(C#N)c3ccc(Oc4ncccn4)cc3n2C2CCC2)cn1` [Compound 3312], the melting point is 206 to 208 °C.

Turning to `Cc1cc(Cl)ccc1Nc1ccc(-c2c(C#N)c3ccc(OC4CCOCC4)cc3n2C2CCC2)cc1` [Compound 3161], the melting point lay in the range of 174 to 179 °C.

`CS(=O)(=O)Nc1ccc(-c2c(C#N)c3ccc(N4CCCCC4)cc3n2C2CCC2)cc1` [Compound 2984] displayed a melting point of 229 to 233 °C.

Molecule `CCCS(=O)(=O)Nc1ccc(-c2c(C#N)c3ccc(Oc4ncccc4C#N)cc3n2C2CC2)c(C)c1` [Compound 3304] had a melting point of 222 to 226 °C.

As for `CCCS(=O)(=O)Nc1ccc(-c2c(C#N)c3ccc(-c4ncccc4C#N)cc3n2C2CCC2)cc1` [Compound 3244], the melting point was in the range of 223 to 225 °C.

Regarding `CC(C)NC(=O)Nc1ccc(-c2c(C#N)c3cc(OCCCn4ccnc4)ccc3n2C2CCC2)cc1` [Compound 2727], the melting point fell in the range of 232 to 234 °C.

`N#Cc1c(-c2ccc(NS(=O)(=O)C3CC3)cc2)n(C2CCC2)c2cc(C(=O)N3CCSCC3)ccc12` [Compound 2826]: the melting point is 205 to 207 °C.

As to `N#Cc1c(-c2ccc(NC3=NC(O)(C(F)(F)F)CS3)cc2)n(C2CCC2)c2cc(OC3CCOCC3)ccc12` (stereo not drawn) [Compound 3150], the melting point lay in the range of 136 to 138 °C.

As to `CCN(CC)C(=O)Nc1ccc(-c2c(C#N)c3ccc(OCCOC)cc3n2CC)cc1` [Compound 1378], the melting point is 147 to 150 °C.

On to `CC(OC(=O)Nc1ccc(-c2c(C#N)c3ccc(OC4CCOC4)cc3n2C2CC2)cc1)c1ccccc1` (stereo not drawn) [Compound 1445], for which the melting point is 112 to 115 °C.

The molecule `Cc1nnc(SCCOc2ccc3c(C#N)c(-c4ccc(NC(=O)OC(C)C)cc4)n(C4CCC4)c3c2)s1` [Compound 2699] returned a melting point of 150 to 151 °C.

`CC(C)(C)OC(=O)Nc1ccc(-c2c(C#N)c3ccc(OCS(C)(=O)=O)cc3n2CC2CC2)cc1` [Compound 3025] came in with a melting point of 214 to 220 °C.

Turning to `COCCOc1ccc2c(C#N)c(-c3ccc(C(=O)NC4CCC4)cc3)n(C3CCC3)c2c1` [Compound 2759], the melting point is 199 to 200 °C.

On to `COc1ccc(Nc2ccc(-c3c(C#N)c4ccc(OC5CCOCC5)cc4n3C3CCC3)cc2)cc1` [Compound 3128], for which the melting point lay within 207 to 210 °C.

For `CSc1nccc(Oc2ccc3c(C#N)c(-c4ccc(NC(=O)OC(C)C)cc4)n(C4CCC4)c3c2)n1` [Compound 3090], the melting point fell in the range of 196 to 201 °C.

The molecule `COCCOc1ccc2c(C#N)c(-c3ccc(C(=O)NC(C)C)cc3)n(C3CCC3)c2c1` [Compound 2753] returned a melting point of 202 to 204 °C.

As to `C[C@@H](OC(=O)Nc1ccc(-c2c(C#N)c3ccc(OCS(C)(=O)=O)cc3n2C2CC2)cc1)C(F)(F)F` [Compound 3054], the melting point is 190 to 196 °C.

The molecule `CC(C)n1c(-c2ccc(NC(=O)O[C@H](C)C3CC3)cc2)c(C#N)c2ccc(N3CCOCC3)cc21` [Compound 2942] came in with a melting point of 191 to 193 °C.

In the case of `CCCS(=O)(=O)Nc1ccc(-c2c(C#N)c3ccc(Oc4ncccc4C(=O)OCC)cc3n2C2CCC2)cc1` [Compound 3308], the melting point fell in the range of 138 to 142 °C.

The molecule `N#Cc1c(-c2ccc(N3CCCCS3(=O)=O)cc2)n(C2CCC2)c2cc(Oc3ncccn3)ccc12` [Compound 3217] showed a melting point of 212 to 223 °C.

As for `Cc1ccnc(Oc2ccc3c(C#N)c(-c4ccc(Nc5cc(C)nn5C)cc4)n(C4CCC4)c3c2)n1` [Compound 3287], the melting point is 166 to 168 °C.

For `CCOCCOc1ccc2c(C#N)c(-c3ccc(NC(=O)NC(C)C)cc3)n(C3CCC3)c2c1` [Compound 2612], the melting point lay in the range of 148 to 150 °C.

On to `C[C@H](NC(=O)Nc1ccc(-c2c(C#N)c3ccc(Oc4ncccn4)cc3n2C2CCC2)cc1)c1ccc(F)cc1` [Compound 2820], for which the melting point was 152 °C (dec.).

Regarding `CC(C)n1c(-c2ccc(NC(=O)O[C@H](C)C3CC3)cc2)c(C#N)c2ccc(O[C@H]3CCOC3)cc21` [Compound 2742], the melting point lay within 189 to 192 °C.

In turn, `CCC(=O)Nc1ccc(-c2c(C#N)c3ccc(N4CCN(C)CC4)cc3n2CC)cc1` [compound 1341, N-{4-[3-cyano-1-ethyl-6-(4-methylpiperazin-1-yl)-indol-2-yl]phenyl}propionamide] had a melting point of 170 to 171 °C.

`N#Cc1c(-c2ccc(Nc3ncccn3)cc2)n(C2CCC2)c2cc(OC3CCOCC3)ccc12` [Compound 3166]: the melting point is 209 to 213 °C.

For the molecule `C[C@@H](OC(=O)Nc1ccc(-c2c(C#N)c3ccc(-c4cn(C)cn4)cc3n2C2CCC2)cc1)C1CC1` [Compound 3048], the melting point was 120 °C (dec.).

Take `CC(C)(C)OC(=O)NS(=O)(=O)Nc1ccc(-c2c(C#N)c3ccc(N4CCOCC4)cc3n2C2CC2)cc1` [Compound 3175]: the melting point fell in the range of 171 to 175 °C.

In the case of `CCn1c(-c2ccc(NC(=O)N3CCCCC3)cc2)c(C#N)c2ccc(OCCOC)cc21` [Compound 1380], the melting point was in the range of 216 to 218 °C.

As to `CC(C)(C)c1csc(Nc2ccc(-c3c(C#N)c4ccc(Oc5ncccn5)cc4n3C3CCC3)cc2)n1` [Compound 3179], the melting point fell in the range of 240 to 241 °C.

For `C[C@@H](OC(=O)Nc1ccc(-c2c(C#N)c3ccc(C(=O)N(C)C)cc3n2C2CCC2)cc1)C1CC1` [Compound 2276], the melting point was in the range of 118 to 120 °C.

On to `CCOc1ccc2c(C#N)c(-c3ccc(NC(=O)O[C@H](C)C(F)(F)F)cc3)n(C3CCC3)c2c1` [Compound 2878], for which the melting point was 196 to 199 °C.

Molecule `CC(C)OC(=O)Nc1ccc(-c2c(C#N)c3ccc(N4CCOCC4)cc3n2C2CCC2)cc1` [compound 2800, [4-(3-cyano-1-cyclobutyl-6-morpholin-4-yl-1H-indol-2-yl)-phenyl]-carbamic acid isopropyl ester] yielded a melting point of 206 to 208 °C.

In turn, `C[C@@H](OC(=O)Nc1ccc(-c2c(C#N)c3ccc(OC4CCS(=O)(=O)CC4)cc3n2CC2CC2)cc1)C1CC1` [Compound 3233] showed a melting point of 193 to 198 °C.

`C[C@@H](OC(=O)Nc1ccc(-c2c(C#N)c3ccc(OC4CCOCC4)cc3n2C2CC2)cc1)C(F)(F)F` [Compound 2910]: the melting point lay within 162 to 164 °C.

In turn, `CCCCNC(=O)Oc1ccc(-c2c(C#N)c3ccc(OC4CCOCC4)cc3n2C2CCC2)cc1` [Compound 2810] came in with a melting point of 137 to 138 °C.

In turn, `CCN(CC)C(=O)c1ccc2c(c1)c(C#N)c(-c1ccc(NC(=O)OC(C)C)cc1)n2C1CCC1` [Compound 3145] returned a melting point of 225 to 226 °C.

In the case of `C[C@@H](OC(=O)Nc1ccc(-c2c(C#N)c3ccc(OC(=O)NC4CCCCC4)cc3n2C2CCC2)cc1)C1CC1` [Compound 3172], the melting point was in the range of 213 to 216 °C.

The molecule `C[C@@H](OC(=O)Nc1ccc(-c2c(C#N)c3ccc(-c4cc(N(C)C)ccn4)cc3n2C2CCC2)cc1)C1CC1` [Compound 3259] gave a melting point of 203 to 208 °C.

On to `CCCS(=O)(=O)Nc1ccc(-c2c(C#N)c3ccc(Oc4ncccc4F)cc3n2C2CC2)cc1` [Compound 2956], for which the melting point was in the range of 198 to 200 °C.

The molecule `N#Cc1c(-c2ccc(NCC(F)F)cc2)n(C2CCC2)c2ccc(OCC(F)F)cc12` [Compound 3292] had a melting point of 159 to 161 °C.

In turn, `CCN(CC)C(=O)c1ccc2c(C#N)c(-c3ccc(NS(=O)(=O)C4CC4)cc3)n(C3CCC3)c2c1` [Compound 2294] yielded a melting point of 205 to 207 °C.

Turning to `C[C@@H](OC(=O)Nc1ccc(-c2c(C#N)c3ccc(OCCF)cc3n2C2CCC2)cc1)C(F)(F)F` [Compound 2879], the melting point was 198 to 200 °C.

Regarding `CN(C)C(=O)c1ccc2c(C#N)c(-c3ccc(NS(=O)(=O)C4CC4)cc3)n(C3CCC3)c2c1` [Compound 2297], the melting point lay within 235 to 237 °C.

`CC(C)C(C)OC(=O)Nc1ccc(-c2c(C#N)c3ccc(OC4CCOC4)cc3n2C2CC2)cc1` (stereo not drawn) [Compound 1446] gave a melting point of 207 to 208 °C.

On to `Cc1cccn(-c2ccc3c(C#N)c(-c4ccc(NC(=O)O[C@H](C)C5CC5)cc4)n(C4CCC4)c3c2)c1=O` [Compound 3338], for which the melting point is 280 to 281 °C.

Molecule `CC(C)NC(=O)Oc1ccc2c(C#N)c(-c3ccc(NC(=O)O[C@H](C)C4CC4)cc3)n(C3CCC3)c2c1` [Compound 3174] returned a melting point of 202 to 205 °C.

Molecule `CC(C)OC(=O)Nc1ccc(-c2c(C#N)c3ccc(OC4CCS(=O)(=O)CC4)cc3n2C(C)C)cc1` [Compound 3236] showed a melting point of 173 to 190 °C.

The values are drawn from patent US7772271B2 (priority 2004, dated 2010).
